Measurements taken from ChEMBL document CHEMBL1141751, “Latifolians A and B, novel JNK3 kinase inhibitors from the Papua New Guinean plant Gnetum latifolium” (J Nat Prod, 2005).

Biological target: Mitogen-activated protein kinase 10 (Homo sapiens, UniProt P53779)
Assay: Inhibition of JNK3-induced transfer of [gamma33P]ATP to biotinylated ATF2 by scintillation proximity assay

Chain of Mitogen-activated protein kinase 10 (P53779 whole entry): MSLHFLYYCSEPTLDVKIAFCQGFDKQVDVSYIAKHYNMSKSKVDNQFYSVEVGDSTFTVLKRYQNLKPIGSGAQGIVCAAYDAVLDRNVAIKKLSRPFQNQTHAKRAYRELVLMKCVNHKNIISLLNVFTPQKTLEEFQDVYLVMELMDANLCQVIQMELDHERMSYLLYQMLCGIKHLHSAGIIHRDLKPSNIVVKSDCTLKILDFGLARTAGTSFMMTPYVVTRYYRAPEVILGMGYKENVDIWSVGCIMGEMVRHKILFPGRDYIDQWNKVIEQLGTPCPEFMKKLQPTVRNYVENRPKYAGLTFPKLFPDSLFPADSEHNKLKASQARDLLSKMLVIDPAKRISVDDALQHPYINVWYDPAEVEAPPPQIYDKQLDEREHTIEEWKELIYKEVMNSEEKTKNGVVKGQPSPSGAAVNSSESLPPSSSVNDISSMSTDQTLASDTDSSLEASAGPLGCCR

SMILES	IC50
Oc1cc2c(cc1O)[C@H]1Cc3cc(O)c(O)cc3[N@+]13CCc1cc(O)c(O)cc1[C@@H]3C2 [LATIFOLIAN A]	13 µM
COc1cc2c(cc1O)C[C@@H]1c3cc(O)c(O)cc3C[C@H]3c4cc(O)c(O)cc4CC[N@@+]213 [LATIFOLIAN B]	10 µM
